Key:
hA3AR = biological target: T1, hA3AR (Homo sapiens, UniProt P0DMS8); assay: Competition binding, [125I]AB-MECA, hA3 CHO cell membranes; settings: for Ki: displacement of [125I]AB-MECA, hA3 CHO cells, mean ± SEM of four assays; for inhibition at 1 µM: 1 µM compound, [125I]AB-MECA binding, read-out: I% hA3 (percentage of inhibition)
T1 construct: host or cells: CHO cells
T1 sequence (P0DMS8 1-318): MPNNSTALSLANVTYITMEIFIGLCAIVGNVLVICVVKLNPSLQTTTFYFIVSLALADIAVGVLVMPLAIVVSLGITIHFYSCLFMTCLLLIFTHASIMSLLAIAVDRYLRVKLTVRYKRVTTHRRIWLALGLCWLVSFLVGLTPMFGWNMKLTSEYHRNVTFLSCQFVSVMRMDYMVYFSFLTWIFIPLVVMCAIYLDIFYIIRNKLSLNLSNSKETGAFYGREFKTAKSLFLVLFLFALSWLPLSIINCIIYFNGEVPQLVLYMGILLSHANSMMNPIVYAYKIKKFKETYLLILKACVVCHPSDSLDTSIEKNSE
Protocol: (§1) CHO cells transfected with hA1, hA2A, hA2B and hA3 ARs (Perkin Elmer, Boston, MA, USA) were grown adherently and maintained in Dulbecco’s modified Eagle’s medium with nutrient mixture F12, containing 10% fetal calf serum, penicillin (100 U/mL), streptomycin (100 μg/mL), L-glutamine (2 mM) and geneticine (G418; 0.2 mg/mL), at 37 °C, in 5% CO2/95% air, until their use in cAMP assays. For membrane preparation, the culture medium was removed, and the cells were washed with phosphate-buffered saline and scraped off T75 flasks in ice-cold hypotonic buffer (5 mM Tris HCl, 1 mM EDTA, pH 7.4). The cell suspension was homogenized with a Polytron, centrifuged for 30 min at 40,000× g, at 4 °C, and the resulting membrane pellet was used for competition binding experiments.
(§2) All synthesized compounds were tested for their affinity to hA1, hA2A and hA3 ARs. Competition experiments to hA1AR were carried out by incubating 1 nM [^3H]-8-cyclopentyl-1,3-dipropylxanthine ([^3H]-DPCPX) with membrane suspension (50 μg of protein/100 μL) and different concentrations of the examined compounds at 25 °C for 90 min in 50 mM Tris HCl, pH 7.4. Non-specific binding was defined as binding in the presence of 1 μM DPCPX and was always <10% of the total binding. Inhibition experiments to hA2A ARs were performed by incubating the radioligand [^3H]-4-(-2-[7-amino-2-{2-furyl}{1,2,4}triazolo{2,3-a} {1,3,5}triazin-5-yl-amino]ethyl)phenol ([^3H]-ZM241385) (1 nM) with the membrane suspension (50 μg of protein/100 μL) and different concentrations of the examined compounds for 60 min, at 4 °C, in 50 mM Tris HCl (pH 7.4), 10 mM MgCl2. Non-specific binding was determined in the presence of ZM241385 (1 μM) and was about 20% of the total binding. Competition binding experiments to A3ARs were carried out by incubating the membrane suspension (50 μg of protein/100 μL) with 0.5 nM [^125I]-N6-(4-aminobenzyl)-N-methylcarboxamidoadenosine ([^125I]-ABMECA) in the presence of different concentrations of the examined compounds for an incubation time of 120 min, at 4 °C, in 50 mM Tris HCl (pH 7.4), 10 mM MgCl2, 1 mM EDTA. Non-specific binding was defined as binding in the presence of 1 μM ABMECA and was always <10% of the total binding. Bound and free radioactivity were separated by filtering the assay mixture through Whatman GF/B glass-fiber filters, using a Brandel cell harvester (Brandel Instruments, Unterföhring, Germany). The filter bound radioactivity was counted by Packard Tri Carb 2810 TR scintillation counter (Perkin Elmer).
(§3) The protein concentration was determined according to a Bio-Rad method, with bovine albumin as a standard reference. Inhibitory binding constant (Ki) values were calculated from those of IC50 according to the Cheng–Prusoff equation, Ki = IC50/(1 + [C*]/KD*), where [C*] is the concentration of the radioligand, and KD* its dissociation constant. Ki and IC50 values were calculated by non-linear regression analysis, using the equation for a sigmoid concentration-response curve (Graph-PAD Prism, San Diego, CA, USA).

hA2AAR = biological target: T2, hA2AAR (Homo sapiens, UniProt P29274); assay: Competition binding, [3H]ZM241385, hA2A CHO cell membranes; settings: displacement of [3H]ZM241385, hA2A CHO cells; mean ± SEM of four assays
T2 construct: host or cells: CHO cells
Protocol: as §1, §2, §3

hA2B AR = biological target: T3, hA2B AR (Homo sapiens, UniProt P29275); assay: cAMP assay in CHO cells expressing hA2B AR (stimulation of cAMP production); format: cell-based; settings: for Emax at 1 µM: CHO, 1 µM compound, in comparison with NECA (1 µM = 100%), read-out: Efficacy hA2B (cAMP assay) (converted); for EC50: hA2B CHO cells, mean ± SEM of four assays
T3 construct: host or cells: CHO cells
T3 sequence (P29275 1-332): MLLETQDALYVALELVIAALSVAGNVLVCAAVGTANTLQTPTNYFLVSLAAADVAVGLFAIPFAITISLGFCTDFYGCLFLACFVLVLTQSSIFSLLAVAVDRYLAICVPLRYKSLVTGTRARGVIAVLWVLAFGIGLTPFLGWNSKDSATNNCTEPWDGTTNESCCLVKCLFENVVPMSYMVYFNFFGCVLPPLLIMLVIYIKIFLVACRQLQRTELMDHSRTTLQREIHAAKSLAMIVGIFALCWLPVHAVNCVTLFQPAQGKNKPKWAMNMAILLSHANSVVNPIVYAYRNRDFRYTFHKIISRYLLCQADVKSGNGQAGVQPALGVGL
Protocol: (§4) The amino-3,5-dicyanopyridines 1–21 were tested for their affinity at hA1, hA2A and hA3 ARs, stably transfected in Chinese Hamster Ovary (CHO) cells. Moreover, they were also studied as hA2B agonists by evaluating their stimulatory effect on cAMP production in CHO cells, stably expressing the hA2B AR. […] Due to their interesting pan profile, both compounds 1 and 5 were evaluated as AR agonists also at the hA2A and hA3 subtypes.
as §1
(§5) CHO cells transfected with hAR subtypes were washed with phosphate-buffered saline, detached with tripsine and centrifuged for 10 min at 200× g. Cells were seeded in a 96-well white half-area microplate (Perkin Elmer, Boston, USA) in a stimulation buffer composed of Hank Balanced Salt Solution, 5 mM HEPES, 0.5 mM Ro 20–1724, 0.1% BSA. The cAMP levels were then quantified by using the AlphaScreen cAMP Detection Kit (Perkin Elmer, Boston, MA, USA), following the manufacturer’s instructions. At the end of the experiments, the plates were read with a Perkin Elmer EnSight Multimode Plate Reader.

hA1AR [1] = biological target: T4, hA1AR (Homo sapiens, UniProt P30542); assay: Competition binding, [3H]DPCPX, hA1 CHO cell membranes; settings: displacement of [3H]DPCPX, hA1 CHO cells; mean ± SEM of four assays
T4 construct: host or cells: CHO cells
T4 sequence (P30542 1-326): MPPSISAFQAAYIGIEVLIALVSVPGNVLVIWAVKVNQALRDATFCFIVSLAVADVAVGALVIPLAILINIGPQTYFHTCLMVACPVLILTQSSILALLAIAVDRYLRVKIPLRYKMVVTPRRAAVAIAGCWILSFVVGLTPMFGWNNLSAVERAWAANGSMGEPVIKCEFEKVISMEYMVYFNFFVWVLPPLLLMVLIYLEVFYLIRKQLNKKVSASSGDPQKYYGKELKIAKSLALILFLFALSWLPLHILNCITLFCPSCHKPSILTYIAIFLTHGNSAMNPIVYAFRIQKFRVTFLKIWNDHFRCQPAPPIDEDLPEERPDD
Protocol: as §1, §2, §3

hA1AR [2] = biological target: T4, hA1AR; assay: Modulation of Forskolin-stimulated cAMP levels in hA1 CHO cells; format: cell-based
Protocol: as §4, §1, §5

T2 sequence (P29274 whole entry): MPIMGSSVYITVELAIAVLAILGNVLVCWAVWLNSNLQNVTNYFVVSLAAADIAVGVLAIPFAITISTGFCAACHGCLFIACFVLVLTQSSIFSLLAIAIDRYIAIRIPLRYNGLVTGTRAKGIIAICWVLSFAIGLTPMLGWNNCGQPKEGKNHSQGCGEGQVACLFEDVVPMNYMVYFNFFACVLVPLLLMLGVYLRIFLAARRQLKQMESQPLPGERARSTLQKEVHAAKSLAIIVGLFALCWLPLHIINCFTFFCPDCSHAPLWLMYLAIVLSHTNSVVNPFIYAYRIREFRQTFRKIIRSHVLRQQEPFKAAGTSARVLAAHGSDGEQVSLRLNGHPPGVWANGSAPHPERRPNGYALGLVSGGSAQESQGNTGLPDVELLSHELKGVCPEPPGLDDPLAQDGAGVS

Ki (hA3AR) [nM] | Ki (hA2AAR) [nM] | Emax at 1 µM (hA2B AR) [%] | EC50 (hA2B AR) [nM] | Ki (hA1AR [1]) [nM] | melting point | inhibition at 1 µM (hA3AR) [%] | EC50 (hA1AR [2]; footnote c, mean ± SEM of four experiments, read-out: hA1AR EC50 or IC50, potency to modulate Forskolin-stimulated cAMP levels) [nM] | hA1AR Efficacy (hA1AR [2]; normalized: CCPA full agonist = 100%, DPCPX inverse agonist = −100%) [%] | hA1AR Profile (hA1AR [2]; pharmacological profile in cAMP assay) | Compound
290 ± 23 | 233 ± 19 | 8 | > 1000 | 190 ± 16 | 293 to 294 °C |  |  |  |  | Br.N#Cc1c(N)nc(SCc2ncc[nH]2)c(C#N)c1-c1ccc(CO)o1 [Compound 2, 2-Amino-4-[5-(hydroxymethyl)furan-2-yl]-6-[(1H-imidazol-2-ylmethyl)sulfanyl]pyridine-3,5-dicarbonitrile hydrobromide]
279 ± 21 | 10.5 ± 0.9 | 1 | > 1000 | 10.1 ± 0.8 |  |  |  |  |  | Cc1ccc(-c2c(C#N)c(N)nc(SCc3ncc[nH]3)c2C#N)o1 [Compound 3, 2-Amino-6-[(1H-imidazol-2-ylmethyl)sulfanyl]-4-(5-methylfuran-2-yl)pyridine-3,5-dicarbonitrile]
274 ± 23 | 37 ± 3 | 42 | 2.32 ± 0.21 | 0.77 ± 0.09 |  |  |  |  |  | N#Cc1c(N)nc(SCc2ncc[nH]2)c(C#N)c1-c1ccoc1 [Compound 4, 2-Amino-4-(furan-3-yl)-6-[(1H-imidazol-2-ylmethyl)sulfanyl]pyridine-3,5-dicarbonitrile]
221 ± 20 | 55 ± 6 | 47 | 3.15 ± 0.29 | 1.01 ± 0.09 | 239 to 241 °C (dec.) |  |  |  |  | N#Cc1c(N)nc(SCc2ncc[nH]2)c(C#N)c1-c1ccsc1 [Compound 6, 2-Amino-6-[(1H-imidazol-2-ylmethyl)sulfanyl]-4-(thiophen-3-yl)pyridine-3,5-dicarbonitrile]
 | 81 ± 7 | 36 | 12.5 ± 1.3 | 8.85 ± 0.82 | 230 °C (dec.) | 26 |  |  |  | N#Cc1c(N)nc(SCc2ncc[nH]2)c(C#N)c1-c1ccncc1 [Compound 7, 2-Amino-6-[(1H-imidazol-2-ylmethyl)sulfanyl]-4,4′-bipyridine-3,5-dicarbonitrile]
 | 463 ± 38 | 58 | 63 ± 5 | 5.26 ± 0.48 | 244 to 245 °C (dec.) | 19 |  |  |  | N#Cc1c(N)nc(SCc2ncc[nH]2)c(C#N)c1-c1cccnc1 [Compound 8, 2′-Amino-6′-[(1H-imidazol-2-ylmethyl)sulfanyl]-3,4′-bipyridine-3′,5′-dicarbonitrile]
 | 613 ± 53 | 1 | > 1000 | 149 ± 11 |  | 23 |  |  |  | N#Cc1c(N)nc(SCc2ncc[nH]2)c(C#N)c1-c1ccc(O)nc1 [Compound 10, 2′-Amino-6-hydroxy-6′-[(1H-imidazol-2-ylmethyl)sulfanyl]-3,4′-bipyridine-3′,5′-dicarbonitrile]
 | 817 ± 71 | 6 | > 1000 | 87 ± 7 |  | 33 |  |  |  | N#Cc1c(N)nc(SCC(=O)NCc2ncc[nH]2)c(C#N)c1-c1ccco1 [Compound 14, 2-{[6-Amino-3,5-dicyano-4-(furan-2-yl)pyridin-2-yl]sulfanyl}-N-(1H-imidazol-2-ylmethyl)acetamide]
542 ± 48 | 279 ± 22 | 6 | > 1000 | 33 ± 3 |  |  | 38 ± 3 | 54 ± 4 | Partial Agonist | N#Cc1c(N)nc(SCc2csc(C(=O)NCCc3cnc[nH]3)n2)c(C#N)c1-c1ccco1 [Compound 17, 4-({[6-Amino-3,5-dicyano-4-(furan-2-yl)pyridin-2-yl]sulfanyl}methyl)-N-[2-(1H-imidazol-5-yl)ethyl]-1,3-thiazole-2-carboxamide]
768 ± 63 | 394 ± 27 | 1 | > 1000 | 34 ± 3 |  |  |  |  |  | CC(=O)Nc1nc(SCc2ncc[nH]2)c(C#N)c(-c2ccco2)c1C#N [Compound 21, N-{3,5-dicyano-4-(furan-2-yl)-6-[(1H-imidazol-2-ylmethyl)sulfanyl]pyridin-2-yl}acetamide]

Source: publication PMC9024521, “4-Heteroaryl Substituted Amino-3,5-Dicyanopyridines as New Adenosine Receptor Ligands: Novel Insights on Structure-Activity Relationships and Perspectives” (Pharmaceuticals, 2022)
